Data as given in patent US20110201564A1, “SUBSTITUTED 7-SULFANYLMETHYL, 7-SULFINYLMETHYL AND 7-SULFONYLMETHYL INDOLES AND USE THEREOF” (BAYER SCHERING PHARMA AKTIENGESELLSCHAFT, priority 2008, published 2011).

What was measured:
[1] = molecular target: T1, progesterone receptor (PR) (Homo sapiens, UniProt P06401); test: Cellular in vitro assay, GAL4-PR chimera luciferase reporter in CHO K1 cells (selectivity); assay type: cell-based; settings: antagonism vs progesterone; CHO K1 GAL4-PR LBD luciferase reporter
T1 construct: of the progesterone receptor (PR, amino acids 680-933); expressed in transfected cells; host or cells: CHO K1
T1 sequence (P06401 680-933): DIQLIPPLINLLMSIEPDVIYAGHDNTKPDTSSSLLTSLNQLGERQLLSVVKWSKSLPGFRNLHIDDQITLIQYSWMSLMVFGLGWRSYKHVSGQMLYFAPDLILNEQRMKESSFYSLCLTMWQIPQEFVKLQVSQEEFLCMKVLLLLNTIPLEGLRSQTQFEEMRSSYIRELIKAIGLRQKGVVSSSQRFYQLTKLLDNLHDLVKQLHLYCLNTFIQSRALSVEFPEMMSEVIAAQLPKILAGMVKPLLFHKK
Outline: (§1)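 CHO K1 cells stably expressing GAL4 DNA-binding domain fused to human MR, PR or AR ligand-binding domains plus GAL4-driven firefly luciferase; compounds added 10–30 min before agonist (aldosterone, progesterone or dihydrotestosterone), luciferase read after 5–6 h; IC50 from sigmoidal concentration–response curves.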

androgen receptor (AR) = molecular target: T2, androgen receptor (AR) (Homo sapiens, UniProt P10275); test: Cellular in vitro assay, GAL4-AR chimera luciferase reporter in CHO K1 cells (selectivity); assay type: cell-based; settings: antagonism vs dihydrotestosterone; CHO K1 GAL4-AR LBD luciferase reporter
T2 construct: of the androgen receptor (AR, amino acids 667-919); expressed in transfected cells; host or cells: CHO K1
T2 sequence (P10275 668-920): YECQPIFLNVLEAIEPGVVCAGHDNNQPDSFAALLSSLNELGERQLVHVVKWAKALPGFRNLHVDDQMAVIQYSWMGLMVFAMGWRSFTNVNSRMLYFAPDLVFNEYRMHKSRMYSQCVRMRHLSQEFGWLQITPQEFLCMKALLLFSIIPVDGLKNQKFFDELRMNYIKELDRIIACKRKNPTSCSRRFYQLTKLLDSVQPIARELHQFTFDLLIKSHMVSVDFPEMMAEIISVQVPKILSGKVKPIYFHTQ
Outline: as §1

CYP3A4 = molecular target: T3, CYP3A4 (Homo sapiens, UniProt P08684); test: Assay to assess irreversible CYP3A4 inhibition (mechanism-based inhibition) in human liver microsomes; assay type: in vitro ADME; settings: CYP3A4 activity as 6β-hydroxytestosterone formation, 2-20 μM
T3 construct: using human liver microsomes (pool from various individuals); from tissue; host or cells: human liver microsomes (pool from various individuals)
Source text: 8. Assay to Assess Irreversible CYP3A4 Inhibition
Cytochrom P450 enzyme inhibition, especially irreversible enzyme inhibition, also referred to as mechanism-based inhibition (MBI), is an unwanted metabolic property of a substance which may, on concurrent administration of other medicaments, lead to considerable drug interactions. Criteria for the presence of an irreversible inhibition are a time-, concentration- and cofactor- (nicotinamide adenine dinucleotide phosphate, NADPH) dependent inhibition. To this end, the compounds of the invention are incubated in vitro with human liver microsomes, the influence on the CYP3A4 activity and the metabolic degradation of the novel active ingredient is determined, and the prototypical parameters kinact, Ki and the partition ratio r are ascertained therefrom.
The compounds of the invention are incubated with concentrations of 2-20 μM. To this end, stock solutions of the active ingredients with a concentration of 0.2-2 mM are prepared in acetonitrile and then pipetted with a 1:100 dilution into the incubation mixture. The liver microsomes are incubated in 50 mM potassium phosphate buffer (pH 7.4) with and without NADPH-generating system consisting of 1 mM NADP^+, 5 mM glucose 6-phosphate and 1 unit of glucose 6-phosphate dehydrogenase, at 37° C. After defined preincubation times of 0-50 min, aliquots are removed from these mixtures, diluted 1:25 in a new incubation, and incubated in the presence of testosterone and new NADPH-generating system again for 20 min. These incubation mixtures are stopped with acetonitrile (final concentration about 30% v/v), and the protein is removed by centrifugation at about 15 000×g. The samples stopped in this way are either analyzed directly or stored at −20° C. until analyzed.
The analysis takes place by high performance liquid chromatography with mass spectrometry detection (LC-MS). The formation of 6β-hydroxytestosterone as measure of CYP3A4 activity, and the test substance still remaining is quantified. The parameters kinact, Ki and the partition ratio r are determined therefrom so as to assess the novel active ingredients in relation to MBI.

T3 sequence (P08684 whole entry): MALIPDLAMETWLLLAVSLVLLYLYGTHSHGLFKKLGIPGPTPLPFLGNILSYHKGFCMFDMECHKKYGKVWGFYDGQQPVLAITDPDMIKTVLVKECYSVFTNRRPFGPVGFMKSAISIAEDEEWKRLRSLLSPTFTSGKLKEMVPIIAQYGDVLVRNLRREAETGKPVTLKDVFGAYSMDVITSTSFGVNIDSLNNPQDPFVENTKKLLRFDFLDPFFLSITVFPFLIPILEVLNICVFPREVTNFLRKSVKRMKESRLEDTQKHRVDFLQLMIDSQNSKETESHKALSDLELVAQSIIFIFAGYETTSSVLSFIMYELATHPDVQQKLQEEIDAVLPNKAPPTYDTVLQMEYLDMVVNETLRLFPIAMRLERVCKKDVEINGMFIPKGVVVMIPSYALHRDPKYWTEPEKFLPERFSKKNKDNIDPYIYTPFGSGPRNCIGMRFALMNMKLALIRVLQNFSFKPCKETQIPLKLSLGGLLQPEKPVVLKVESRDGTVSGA

| SMILES | IC50 [1] [µM] | IC50 (androgen receptor (AR)) [µM] | Partition ratio r (CYP3A4) |
| --- | --- | --- | --- |
| CS(=O)(=O)Cc1cccc2c(C(c3ccc(Cl)cc3)C3CC3(F)F)c[nH]c12 (single isomer, unassigned) [Example 261-1, 3-[(4-Chlorophenyl)(2,2-difluorocyclopropyl)methyl]-7-[(methylsulfonyl)methyl]-1H-indole] | 12.3 | 5.64 | >200 |
| CS(=O)(=O)Cc1cccc2c(C(CCC#N)c3ccc(Cl)cc3F)c[nH]c12 (single isomer, unassigned) [Example 59-1, 4-(4-Chloro-2-fluorophenyl)-4-{7-[(methylsulfonyl)methyl]-1H-indol-3-yl}butanonitrile] | 10 | 7.76 | 220 |
| CS(=O)(=O)Cc1cc(F)cc2c(C(c3ccc(C(F)(F)F)cc3F)C3CC3C#N)c[nH]c12 (single isomer, unassigned) [Example 271-1-1, 2-({5-Fluoro-7-[(methylsulfonyl)methyl]-1H-indol-3-yl}[2-fluoro-4-(trifluoro-methyl)phenyl]methyl)cyclopropanecarbonitrile] | 10 | 0.94 | >200 |
| CS(=O)(=O)Cc1cc(F)cc2c(C(c3ccc(Cl)cc3F)C3CC3C#N)c[nH]c12 (single isomer, unassigned) [Example 273-1-2, 2-[(4-Chloro-2-fluorophenyl){5-fluoro-7-[(methylsulfonyl)methyl]-1H-indol-3-yl}methyl]cyclopropanecarbonitrile] | 10 | 0.98 | >200 |
| CS(=O)(=O)Cc1cccc2c(C(CCC#N)c3ccc4c(c3)OC(F)(F)O4)c[nH]c12 (stereo not drawn) [Example 169, 4-(2,2-Difluoro-1,3-benzodioxol-5-yl)-4-{7-[(methylsulfonyl)methyl]-1H-indol-3-yl}butanonitrile] | 6.57 | 2.28 | >500 |

More lines, now with the values ahead:

| IC50 [1] [µM] | IC50 (androgen receptor (AR)) [µM] | Partition ratio r (CYP3A4) | SMILES |
| --- | --- | --- | --- |
| 6.44 | 5.22 | >500 | CS(=O)(=O)Cc1cccc2c(C(CCC#N)c3ccc4sccc4c3)c[nH]c12 (stereo not drawn) [Example 73, 4-(1-Benzothiophen-5-yl)-4-{7-[(methylsulfonyl)methyl]-1H-indol-3-yl}butanonitrile] |
| 7.24 | 3.22 | >500 | CS(=O)(=O)Cc1cccc2c(C(c3ccc(F)cc3)c3ccc(C(F)(F)F)cc3)c[nH]c12 (stereo not drawn) [Example 113, 3-{(4-Fluorophenyl) [4-(trifluoromethyl)phenyl]methyl}-7-[(methylsulfonyl)methyl]-1H-indole] |
| 4.83 | 3.33 | >400 | CS(=O)(=O)Cc1cccc2c(C3(C4CC4)CCc4cc(F)ccc43)c[nH]c12 (stereo not drawn) [Example 107, 3-(1-Cyclopropyl-5-fluoro-2,3-dihydro-1H-inden-1-yl)-7-[(methylsulfonyl)methyl]-1H-indole] |
| 1.42 | 3.02 | 90 | CCC(CCO)(c1ccc(Cl)cc1)c1c[nH]c2c(CS(C)(=O)=O)cccc12 (stereo not drawn) [Example 147, 3-(4-Chlorophenyl)-3-{7-[(methylsulfonyl)methyl]-1H-indol-3-yl}pentan-1-ol] |
| 16 | 5.28 | 120 | CCC(CCC#N)(c1ccc(Cl)cc1)c1c[nH]c2c(CS(C)(=O)=O)cccc12 (stereo not drawn) [Example 172, 4-(4-Chlorophenyl)-4-{7-[(methylsulfonyl)methyl]-1H-indol-3-yl}hexanonitrile] |
